Results taken from US20260130372A1 (SYNGENTA CROP PROTECTION AG, priority 2022, published 2026).

Assays:
Puccinia recondita [1] = assay: leaf disc assay on wheat leaf segments, curative spray timing; assay type: in vivo
Description: (§1) Streptimidone (CAS: 738-72-7) was purchased from a commercial vendor. A stock solution for streptimidone was produced in DMSO (max. 10 mg/ml). Malonomicin was produced according to Law et al, 2018 (Nature Catalys is |VOL 1|DECEMBER 2018|977-984). A stock solution of malonomicin was produced in water plus 0.025% Tween20.
(§2) Assays to test efficacy of mixtures of streptimidone in combination with malonomicin on the control of fungal pathogens in a leaf disc assay were designed for two 24well plates.
(§3) Table 5 and table 6: Outline of 24well testplate(1) and testplate(2) including concentration of compounds sprayed per well. The upper number in the cell indicates streptimidone concentration (ppm), the lower number malonomicin concentration (ppm). Column (1) holds a dilution series of streptimidone, row (2-D) holds a dilution series of malonomicin. Well 2-D-(1) represents an untreated check. This design was applied for tests including Puccinia recondita (EPPO code: PUCCRE) with preventive and curative spray timing.
(§4) A first set of master plates with 1× concentrated spray solution of the streptimidone stock diluted in water with concentrations according to table 5 or table 6, respectively, was prepared. Each well contained 2% DMSO and 0.025% Tween20. Accordingly, a second set of master plates with 1× concentrated malonomicin stock diluted in water was prepared. Each well of the second set contained 0.025% Tween20. Leaf segments placed on agar in 24well plates are sprayed with 8 ul of solution from the master plate containing streptimidone and the leaf segments were let to dry, followed 2 hours later by 8 ul of solution from the master plate containing malonomicin. After second sprays have dried, leaf segments are infected with fungal spores to obtrain a preventive application timing. Alternativeley, leaf segments infected one day before spray of the compounds are used, resulting in a curative spray timing. In addition, several plates were produced where leaf segments were sprayed 2× in absence of test compound (with only DMSO and Tween20), representing the untreated check samples. For each leaf segment percent leaf coverage of disease symptoms was assessed. Percent leaf coverage reduction relative to the untreated check was calculated. Efficacy of the mixtures was tested in duplicate and on different fungal species. Reported efficacy values are the average of two replicate results.
Puccinia recondita (EPPO Code: PUCCRE) with Curative Spray Timing.
Wheat (cultivar Kanzler) leaf segments are placed on agar in multiwell plates (24-well format). The leaf disks are then inoculated with a spore suspension of the fungus. One day after inoculation the test solution is sprayed (8 ul per well). After appropriate incubation the activity of a compound is assessed 8 dpi (days after inoculation) as curative fungicidal activity

Puccinia recondita [2] = assay: leaf disc assay on wheat leaf segments, preventive spray timing; assay type: in vivo
Description: as §1, §2, §3, §4
Puccinia recondita (EPPO Code: PUCCRE) with Preventive Spray Timing.
Wheat (cultivar Kanzler) leaf segments are placed on agar in multiwell plates (24-well format) and sprayed with test solutions (8 ul per well). After drying, the leaf disks are inoculated with a spore suspension of the fungus. After appropriate incubation the activity of a compound is assessed 8 dpi (days after inoculation) as preventive fungicidal activity.

Botrytis cinerea = assay: liquid culture assay, 96well plate, photometric growth inhibition; assay type: cell-based
Description: as §1, with “1|December” for “1|DECEMBER”
Assays to test efficacy of mixtures of streptimidone in combination with malonomicin on the control of fungal pathogens in a liquid culture assay were designed for a 96well plate.
Table1: outline of 96well testplate including concentration of compounds per well. The upper number in the cell indicates malonomicin concentration (ppm), the lower number streptimidone concentration (ppm). Column (1) holds a dilution series of streptimidone, row (H) holds a dilution series of malonomicin, column (12) holds cells representing untreated check.
The 96 well plate design allows to compare disease control of the mixture with disease control of the respective single compound at the same rate.
A master plate with 10× concentrated solution of the compound stock solutions diluted in water plus 0.025% Tween20 was prepared. The concentration of DMSO (from the stock of streptimidone) and Tween20 was kept constant in all cells of the master plate. 10 μl was transferred from the master plate to a 96well test plate. The nutrient broth containing the fungal spores/mycelia fragments was then added to the test plate to give an end concentration of 1× for the tested compounds (as outlined in table 1). The test plates were incubated in the dark at […] and 96% rh. The inhibition of fungal growth was determined photometrically after ca 3 days, and percent fungal growth reduction relative to the untreated check was calculated. Efficacy of the mixtures was tested on a fungal species: Botrytis cinerea (EPPO code: BOTRCI)
Conidia of the fungus from cryogenic storage were directly mixed into nutrient broth (Vogel's minimal media).

C=C/C(C)=C/[C@H](C)C(=O)C[C@H](O)CC1CC(=O)NC(=O)C1 [streptimidone, Streptimidone]
25%: control of fungal growth (reduction of symptoms on the leaf segment) (Puccinia recondita [1]; curative, well 1-C(1), streptimidone 50 ppm solo)
10%: control of fungal growth (reduction of symptoms on the leaf segment) (Puccinia recondita [2]; well 1-A(1), streptimidone 200 ppm solo) | control of fungal growth (reduction of symptoms on the leaf segment) (Puccinia recondita [2]; well 2-A(1), streptimidone 12.5 ppm solo)
35%: control of fungal growth (reduction of symptoms on the leaf segment) (Puccinia recondita [1]; curative, well 1-D(1), streptimidone 25 ppm solo) | control of fungal growth (reduction of symptoms on the leaf segment) (Puccinia recondita [2]; well 1-B(1), streptimidone 100 ppm solo)
0%: control of fungal growth (reduction of symptoms on the leaf segment) (Puccinia recondita [1]; curative, well 2-B(1), streptimidone 6.25 ppm solo) | control of fungal growth (reduction of symptoms on the leaf segment) (Puccinia recondita [1]; curative, well 2-C(1), streptimidone 3.13 ppm solo) | control of fungal growth (reduction of symptoms on the leaf segment) (Puccinia recondita [1]; in vivo) | control of fungal growth (reduction of symptoms on the leaf segment) (Puccinia recondita [2]; well 1-C(1), streptimidone 50 ppm solo) | control of fungal growth (reduction of symptoms on the leaf segment) (Puccinia recondita [2]; well 1-D(1), streptimidone 25 ppm solo) | control of fungal growth (reduction of symptoms on the leaf segment) (Puccinia recondita [2]; well 2-B(1), streptimidone 6.25 ppm solo) | control of fungal growth (reduction of symptoms on the leaf segment) (Puccinia recondita [2]; well 2-C(1), streptimidone 3.13 ppm solo) | control of fungal growth (Botrytis cinerea; well A(1), streptimidone 100 ppm solo) | control of fungal growth (Botrytis cinerea; well B(1), streptimidone 50 ppm solo) | control of fungal growth (Botrytis cinerea; well C(1), streptimidone 25 ppm solo) | control of fungal growth (Botrytis cinerea; well D(1), streptimidone 12.5 ppm solo) | control of fungal growth (Botrytis cinerea; well E(1), streptimidone 6.25 ppm solo) | control of fungal growth (Botrytis cinerea; well F(1), streptimidone 3.125 ppm solo) | control of fungal growth (Botrytis cinerea; well G(1), streptimidone 1.56 ppm solo)
20%: control of fungal growth (reduction of symptoms on the leaf segment) (Puccinia recondita [1]; curative, well 1-A(1), streptimidone 200 ppm solo) | control of fungal growth (reduction of symptoms on the leaf segment) (Puccinia recondita [1]; curative, well 1-B(1), streptimidone 100 ppm solo)

NC[C@@H]1NC(=O)C(C(=O)CC(NC(=O)[C@@H](N)CO)(C(=O)O)C(=O)O)=C1O [malonomicin, {[(2S)-2-amino-3-hydroxypropanoyl]amino}{2-[(5S)-5-(aminomethyl)-4-hydroxy-2-oxo-2,5-dihydro-1H-pyrrol-3-yl]-2-oxoethyl}malonic acid]
100%: control of fungal growth (reduction of symptoms on the leaf segment) (Puccinia recondita [1]; curative, well 2-D(2), malonomicin 200 ppm solo) | control of fungal growth (reduction of symptoms on the leaf segment) (Puccinia recondita [1]; curative, well 2-D(3), malonomicin 20 ppm solo) | control of fungal growth (reduction of symptoms on the leaf segment) (Puccinia recondita [1]; curative, well 2-D(4), malonomicin 6.67 ppm solo) | control of fungal growth (reduction of symptoms on the leaf segment) (Puccinia recondita [2]; well 2-D(2), malonomicin 200 ppm solo) | control of fungal growth (reduction of symptoms on the leaf segment) (Puccinia recondita [2]; well 2-D(3), malonomicin 20 ppm solo)
50%: control of fungal growth (Botrytis cinerea; well H(7), malonomicin 31.25 ppm solo)
0%: control of fungal growth (reduction of symptoms on the leaf segment) (Puccinia recondita [2]; well 2-D(6), malonomicin 0.74 ppm solo) | control of fungal growth (Botrytis cinerea; well H(8), malonomicin 15.63 ppm solo) | control of fungal growth (Botrytis cinerea; well H(9), malonomicin 7.81 ppm solo) | control of fungal growth (Botrytis cinerea; well H(10), malonomicin 3.00 ppm solo) | control of fungal growth (Botrytis cinerea; well H(11), malonomicin 1.00 ppm solo)
10%: control of fungal growth (reduction of symptoms on the leaf segment) (Puccinia recondita [2]; well 2-D(5), malonomicin 2.22 ppm solo)
35%: control of fungal growth (reduction of symptoms on the leaf segment) (Puccinia recondita [1]; curative, well 2-D(6), malonomicin 0.74 ppm solo)
70%: control of fungal growth (reduction of symptoms on the leaf segment) (Puccinia recondita [1]; curative, well 2-D(5), malonomicin 2.22 ppm solo) | control of fungal growth (Botrytis cinerea; well H(2), malonomicin 1000 ppm solo) | control of fungal growth (Botrytis cinerea; well H(3), malonomicin 500 ppm solo) | control of fungal growth (Botrytis cinerea; well H(4), malonomicin 250 ppm solo) | control of fungal growth (Botrytis cinerea; well H(5), malonomicin 125 ppm solo) | control of fungal growth (Botrytis cinerea; well H(6), malonomicin 62.5 ppm solo)
80%: control of fungal growth (reduction of symptoms on the leaf segment) (Puccinia recondita [2]; well 2-D(4), malonomicin 6.67 ppm solo)
